Columns and labels:
[1] = Cytotoxicity test upon human embryonic cells (MTT); format: cell-based; details: human, MRC-5 human diploid embryonic lung cells; MRC-5, five days, MTT; mean of three experiments
Experimental: (§1) A human diploid embryonic lung cell line (MRC-5, Bio-Whittaker 72211D) was used to assess the cytotoxic effects towards eukaryotic host cells. MRC-5 cells were seeded at 5,000 cells per well in 100 μl. After 24 hours, the cells were washed and two-fold dilutions of the drug were added in 200 μl standard culture medium (RPMI medium + 5% fetal calf serum) and maintained for five days under 5% CO2 atmosphere. The final DMSO concentration in the culture remained below 0.1%. Untreated cultures were included as controls. The cytotoxicity was determined using the colorimetric MTT assay according to the manufacturer's recommendations (Cell proliferation kit I, Roche Applied Science, France) and scored as a percentage of reduction in absorption at 540 nm of treated cultures versus untreated control cultures. […] The results were expressed as the mean ± the standard deviations determined from several independent experiments. The index of selectivity was defined as the ratio of the IC50 value on MRC-5 to that of P. falciparum.

human MRC-5 cells = test: Cytotoxicity test upon human embryonic cells (MTT); format: cell-based; details: Homo sapiens, MRC5, 120 h; MRC-5, five days, MTT; mean of three experiments
Experimental: as §1

[2] = system: P. falciparum sphingomyelin synthase activity; test: Sphingomyelin synthase activity assay in trophozoite cultures (NBD-C6-ceramide); format: cell-based, Plasmodium falciparum; details: trophozoites 20-30 h, 0-500 μM drug, 10 μM NBD-C6-ceramide, 60 min, 37°C
Experimental: SPM synthase activity was measured as described by Haldar et al.. Briefly, assays were performed on P. falciparum cultures at the trophozoite stage (20–30 h old parasites). 400 μl of culture (1 × 10^8 parasites) were incubated for 60 min at 37°C with 10 μM NBD-C6-ceramide and 0 to 500 μM PPMP or AD2646. Cells were then lysed by freezing and thawing of the culture. Lipids were extracted by a modification of the method of Bligh and Dyer. To each sample, three volumes of a CH3OH/CHCl3 mixture (1:2, v:v) were added and the mixture vortexed for one min. Organic and aqueous phases were separated by centrifugation (12,000 × g, five min) and the organic phase was dried. Lipids were dissolved in 15 μl ethanol and analysed by thin layer chromatography on HPTLC plates (Silica gel 60 F254, Merck, Darmstadt, Germany) in CH3OH/[…]/NH4OH (75:25:4, v:v:v). For qualitative analyses, the fluorescent lipids were detected under UV and for quantitative analyses, the fluorescent lipid spots were scraped, eluted in one ml methanol and quantified at an excitation of 470 nm and an emission of 530 nm in a spectrofluorometer. The percentage of SPM synthase activity for each drug concentration was determined by comparison of the fluorescence quantified in the analog-treated culture with that in the control culture (without drug).

[3] = system: P. falciparum synchronized cultures; test: Parasite stage-specific inhibitory effects and reversibility (Giemsa-stained smears); format: cell-based, Plasmodium falciparum; details: rings, 24 hours incubation with 5 μM, then drug removal (data not shown)
[4] = system: chloroquine-resistant strain FcB1 of P. falciparum; test: Anti-Plasmodium activity, [3H]hypoxanthine microdilution on asynchronous cultures; format: cell-based, Plasmodium falciparum; details: Plasmodium falciparum; strain FcB1, asynchronous cultures, n = 3; read-out: IC50
Experimental: P. falciparum strains (FcB1/Colombia, K1/Thailand, F32/Tanzania, W2/Indochina) were maintained in continuous culture on human erythrocytes in RPMI medium containing 7% (v/v) heat-inactivated human serum under an atmosphere of 3% CO2, 6% O2, 91% N2, at 37°C, as described by Trager and Jensen. Parasite synchronization was performed successively by treatment with 5% (w/v) sorbitol and by concentration in gelatin solution as previously described.
Drug susceptibility assays were performed using a modification of the semi automated microdilution technique of Desjardins et al.. Stock solutions of test compounds were prepared in DMSO. Drug solutions were serially diluted twofold with 100 μl culture medium in 96-well plates. Asynchronous parasite cultures (100 μl, 1 % parasitemia and 1 % final hematocrite) were added to each well and incubated for 24 hours at 37°C prior to the addition of 0.5 μCi of [^3H] hypoxanthine (Amersham, France, 1 to 5 Ci.mmol/ml) per well. After a further incubation of 24 hour, plates were frozen and thawed. Cell lysates were then collected onto glass-filter papers and counted in a liquid scintillation spectrometer. The growth inhibition for each drug concentration was determined by comparison of the radioactivity incorporated in the treated culture with that in the control culture (having the same final % of DMSO) maintained on the same plate. The concentration causing 50% growth inhibition (IC50) and 90% growth (IC90) were obtained from the drug concentration-response curve and the results were expressed as the means ± the standard deviations determined from several independent experiments.

P. falciparum = system: P. falciparum; design: method as in PMID 7568097; details: synchronized cultures at the ring stage; read-out: IC50 previously reported; cited from earlier work
[5] = system: tubovesicular network of P. falciparum; test: Tubovesicular network formation, BODIPY-FL-C5-ceramide fluorescence microscopy; format: cell-based, Plasmodium falciparum
Experimental: Infected erythrocytes treated with or without ceramide analogs were incubated for 30 min, at 37°C, in culture medium containing 10 μM BODIPY-FL-C5-ceramide, washed three times with culture medium without serum and fixed overnight, at 4°C, in 3.7% formaldehyde/0.05% glutaraldehyde. Cells were mounted on poly-L-lysine coated slides and viewed using a Nikon Eclipse TE 300 DV inverted microscope with an 100X oil objective mounted on a piezzo electric device using appropriate fluorescence emission filters. Image acquisition (z-series) was performed with a back illuminated cooled detector (CCD EEV: NTE/CCD-1024-EB, Roper Scientific, France) using a 0.2 μm step. Data acquisition and image deconvolution process were performed with Metamorph software (Universal Imaging Corporation, Roper Scientific, France). The images presented correspond to the maximum intensity projection of the deconvoluted z-series.

[6] = system: malaria-induced anion channel; test: Malaria-induced anion channel activity, whole-cell patch-clamp; format: cell-based, Plasmodium falciparum; details: infected erythrocytes, 24 hours, 250 nM AD2646 or 10 μM PPMP, whole-cell patch-clamp (unpublished data)
Source text: Sphingolipids preferentially interact with cholesterol in membranes, especially in detergent-resistant microdomains (DRMs or rafts). Rafts have been described in Plasmodium and are involved, at least, in the uptake of erythrocyte raft proteins and maintenance of the parasitophorous vacuole containing the parasite, inside the erythrocyte. This interaction implies : 1) van der Waals interactions between the saturated acyl chain and sphingoid moiety of sphingolipids and the rigid planar tetracyclic rings of cholesterol and 2) hydrogen bonds between the 3-β hydroxyl group of cholesterol and the fatty acyl carbonyl group resulting from the amide linkage with the sphingoid moiety. The amide-linked fatty acid function seems to have a profound stabilizing effect on cholesterol-sphingolipid interactions. It could be hypothesized that in a membrane context, methylene analogs might have a destabilizing effect on the cholesterol-sphingolipid interactions and, in consequence, modifications of membrane properties. Indeed, P. falciparum growth is characterized by a setting up of new permeabilities of the infected-erythrocyte membrane. Although the biochemical nature of these new permeabilities is still unknown, they have been characterized from an electrophysiological point of view and involve a malaria-induced anion channel. […]

IC50 [4]: 9 ± 1.7 µM
SMILES: CCCCCCCCCCCCCCCC(=O)NC(CN1CCOCC1)C(O)c1ccccc1 (stereo not drawn) [PPMP, d,1-threo-1-phenyl-2-palmitoylamino-3-morpholino-1-propanol, reference compound]
IC90 at 5 days [1]: 12.4 µM
IC50 (human MRC-5 cells): 7.5 µM
inhibition of SPM synthase activity (shape of curve) [2]: biphasic inhibition curve
reversibility of ring-stage block [3]: recovered to a normal growth after drug removal
IC50 (P. falciparum): 0.85 µM
TVN formation ([5]; rings incubated 24 hours with 60 nM AD2646 or 5 μM PPMP): no TVN was observed
ring development ([5]; rings, 24 hours, 5 μM): totally inhibited
induced anion channel activity [6]: did not modulate significantly the induced channel activity
